Data taken from US7851637B2, “Compounds and methods for inhibiting the interaction of BCL proteins with binding partners” (Infinity Pharmaceuticals, Inc., priority 2004, dated 2010).
Read-outs that look alike come from different tables or passages of the source.

Legend:
Bcl-2 = Bcl-2 (Homo sapiens, UniProt P10415); experiment: Bcl-2 binding affinity analysis (fluorescence polarization binding assay)
Procedure, shortened: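 Binding to human Bcl-2 quantified in vitro by a fluorescence polarization assay.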

Bcl-xL = Bcl-xL (Homo sapiens, UniProt Q07817); experiment: Bcl-xL binding affinity analysis (fluorescence polarization binding assay); design: scale not given here
Chain of Bcl-xL (Q07817 whole entry): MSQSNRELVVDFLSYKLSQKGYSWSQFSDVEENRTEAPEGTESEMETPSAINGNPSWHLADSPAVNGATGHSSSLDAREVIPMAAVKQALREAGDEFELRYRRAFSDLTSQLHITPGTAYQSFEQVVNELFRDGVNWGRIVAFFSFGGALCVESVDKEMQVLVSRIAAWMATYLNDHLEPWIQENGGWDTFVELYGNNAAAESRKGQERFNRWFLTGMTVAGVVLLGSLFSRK
Procedure, shortened: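 In vitro fluorescence polarization binding assay measuring compound binding to human Bcl-xL.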

[1] = tested on: RL Human Follicular Lymphoma Cell Line; experiment: Alamar blue cytotoxicity assay in RL cells; assay type: cell-based; conditions: Homo sapiens, 72 h incubation, read-out: Bcl RL Alamar Blue IC50
Experimental: (§1) When RL-cells are exposed to isoxazolidine compounds of the present invention, the inhibitors show a dose-dependent cell-killing in the Alamar blue cytoxicity assay with IC50 values of from about 100 μM to about 1 μM (See Examples). When Panc1 cells are exposed to the isoxazolidine compounds of the present invention in combination with camptothecin, the inhibitors show a synergistic dose-dependent cell killing in the propidium iodide exclusion cell survival assay with IC50 values of from about 100 μM to about 1 μM (See Examples).
• 1) Using 96 well plates, compounds were serially diluted in DMSO from 9 mM to 4 uM • 2) Assay plates were prepared by diluting samples 310 fold into 150 ul of medium containing 30,000 cells/well resulting in a final DMSO concentration of 0.3% and a concentration range from 29 uM to 0.013 uM for each compound. • 3) Plates were incubated at 37 C and 5% CO2 for 72 h • 4) After 72 h, Alamar blue reagent was added to each well and plates read according to manufacturer's instructions
In vitro cytotoxicity data for RL cells is presented below for various compounds of the invention.

[2] = tested on: Human Pancreatic Cancer Cell Line Panc1; experiment: Cell death assay (propidium iodide/Hoechst) in Panc1 cells with or without camptothecin; assay type: cell-based; conditions: 72 hours, % cell death by propidium iodide/Hoechst
Experimental: as §1
• 1) Compounds were serially diluted in DMSO from a 9 mM stock to a final concentration of 0.004 mM in a 96 well plate. • 2) Assay plates were prepared by diluting compounds 310 fold into 150 ul of medium containing 10,000 cells/well, with or without 3 uM Camptothecin, resulting in a final DMSO concentration of 0.3% and a compound concentration range from 29 uM to […] for each compound. • 3) Assay plates were incubated at 37 C, 5% CO2 for 72 hours. • 4) After 72 hours, propidium iodide and Hoechst dye were added to each well according to manufacturer's instruction. • 5) Plates were imaged on a fluorescence microscope at wavelengths Ex560/Em650 (Propidium iodide) and Ex360/Em465 (Hoechst) • 6) MetaMorph imaging software was used to determine % cell death by dividing the number of propidium iodide stained cells (dead cells) by the number of Hoechst stained cells (all cells), multipled by 100, in each field.
Panc1 invitro cellular data is presented below for various compounds of the invention.

[3] = Homo sapiens, PANC-1, without camptothecin, read-out: Panc1 − Cpt IC50
[4] = with 3 uM Camptothecin, read-out: Panc1 + Cpt IC50

Chain of Bcl-2 (P10415 whole entry): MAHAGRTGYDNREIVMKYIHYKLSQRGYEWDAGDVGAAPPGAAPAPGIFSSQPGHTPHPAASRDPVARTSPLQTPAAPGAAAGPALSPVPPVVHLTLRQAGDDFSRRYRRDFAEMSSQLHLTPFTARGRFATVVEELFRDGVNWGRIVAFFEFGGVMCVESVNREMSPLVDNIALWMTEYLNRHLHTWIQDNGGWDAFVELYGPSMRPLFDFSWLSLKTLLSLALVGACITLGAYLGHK

C[C@@H]1[C@@H](NC(=O)[C@@H]2C([C@H](C)O)[C@H](CO)ON2Cc2cccc(CN(CCN(C)C)Cc3ccccc3Cl)c2)C[C@H]2C[C@@H]1C2(C)C (stereo partly shown) [Compound 346]
Ki (Bcl-2): < 800 nM
Bcl-XL binding affinity Ki (Bcl-xL): ♯
IC50 [1]: 2 to 5 µM
IC50 [2, 3]: > 2500 nM
IC50 [2, 4]: > 2500 nM

COc1c(CN2O[C@@H](CO)[C@@H]([C@H](C)O)[C@H]2C(=O)N[C@H]2C[C@H]3C[C@@H]([C@@H]2C)C3(C)C)cccc1-c1cccc(C(=O)N[C@H](CN(C)C)C2CCCCC2)c1 [Compound 480]
Ki (Bcl-2): < 800 nM
Bcl-XL binding affinity Ki (Bcl-xL): ♯
IC50 [1]: 2 to 5 µM
IC50 [2, 3]: > 2500 nM
IC50 [2, 4]: 1300 to 1800 nM

CC(C)CC(CN(C)C)N(Cc1ccc(C(F)(F)F)cc1)Cc1cccc(CN2OC(CO)C(C(C)O)C2C(=O)NC2CC3CC(C2C)C3(C)C)c1 (stereo not shown) [Compound 327]
Ki (Bcl-2): < 800 nM
Bcl-XL binding affinity Ki (Bcl-xL): ♯
IC50 [1]: < 2 µM

CC(O)C1C(CO)ON(Cc2cccc(CN(CCN(C)C)Cc3ccccc3-c3ccccc3)c2)C1C(=O)NC1CC2CC(C1C)C2(C)C (stereo not shown) [Compound 340]
Ki (Bcl-2): < 800 nM
Bcl-XL binding affinity Ki (Bcl-xL): ♯
IC50 [1]: 2 to 5 µM

COc1ccccc1CN(CCN(C)C)Cc1cccc(CN2OC(CO)C(C(C)O)C2C(=O)NC2CC3CC(C2C)C3(C)C)c1 (stereo not shown) [Compound 351]
Ki (Bcl-2): < 800 nM
Bcl-XL binding affinity Ki (Bcl-xL): ♯
IC50 [1]: 2 to 5 µM

C[C@@H]1[C@@H](NC(=O)[C@@H]2C([C@H](C)O)[C@H](CO)ON2Cc2cccc(CN(Cc3ccccc3)[C@@H](CCc3ccccc3)CN(C)C)c2)C[C@H]2C[C@@H]1C2(C)C (stereo partly shown) [Compound 420]
Ki (Bcl-2): < 800 nM
Bcl-XL binding affinity Ki (Bcl-xL): ♯
IC50 [1]: < 2 µM

C[C@@H]1[C@@H](NC(=O)[C@@H]2[C@H]([C@H](C)O)[C@H](CO)ON2Cc2cccc(NC(=O)N[C@H](CC3CCCCC3)CN(C)C)c2)C[C@H]2C[C@@H]1C2(C)C [Compound 574]
Ki (Bcl-2): < 800 nM
Bcl-XL binding affinity Ki (Bcl-xL): ♯
IC50 [1]: 2 to 5 µM

CC(C)CC(CN(C)C)N(Cc1cccc(CN2OC(CO)C(C(C)O)C2C(=O)NC2CC3CC(C2C)C3(C)C)c1)Cc1cccc(C(F)(F)F)c1 (stereo not shown) [Compound 326]
Ki (Bcl-2): < 800 nM
Bcl-XL binding affinity Ki (Bcl-xL): ♯
IC50 [1]: 2 to 5 µM

CC(O)C1C(CO)ON(Cc2cccc(CN3CCN(C)C(c4ccccc4)C3)c2)C1C(=O)NC1CC2CC(C1C)C2(C)C (stereo not shown) [Compound 456]
Ki (Bcl-2): < 800 nM
Bcl-XL binding affinity Ki (Bcl-xL): ♯
IC50 [1]: > 5 µM

CC(O)C1C(CO)ON(Cc2cccc(CN(CCN(C)C)Cc3cc4ccccc4o3)c2)C1C(=O)NC1CC2CC(C1C)C2(C)C (stereo not shown) [Compound 384]
Ki (Bcl-2): < 800 nM
Bcl-XL binding affinity Ki (Bcl-xL): ♯
IC50 [1]: 2 to 5 µM

CC(C)C[C@@H](CN(C)C)N(Cc1cccc(CN2O[C@@H](CO)C([C@H](C)O)[C@H]2C(=O)N[C@H]2C[C@H]3C[C@@H]([C@@H]2C)C3(C)C)c1)Cc1c(Cl)cccc1[N+](=O)[O-] (stereo partly shown) [Compound 322]
Ki (Bcl-2): < 800 nM
Bcl-XL binding affinity Ki (Bcl-xL): ♯
IC50 [1]: 2 to 5 µM

C[C@@H]1[C@@H](NC(=O)[C@@H]2[C@H]([C@H](C)O)[C@H](CO)ON2Cc2cccc(N(CCCN(C)C)Cc3ccccc3C(F)(F)F)c2)C[C@H]2C[C@@H]1C2(C)C [Compound 585]
Ki (Bcl-2): < 800 nM
Bcl-XL binding affinity Ki (Bcl-xL): ♯
IC50 [1]: 2 to 5 µM

CC(O)C1C(CO)ON(Cc2cccc(CN(CCN(C)C)Cc3cccc(O)c3)c2)C1C(=O)NC1CC2CC(C1C)C2(C)C (stereo not shown) [Compound 378]
Ki (Bcl-2): < 800 nM
Bcl-XL binding affinity Ki (Bcl-xL): ♯
IC50 [1]: 2 to 5 µM

CCCCCCCN(CCN(C)C)Cc1cccc(CN2O[C@@H](CO)C([C@H](C)O)[C@H]2C(=O)N[C@H]2C[C@H]3C[C@@H]([C@@H]2C)C3(C)C)c1 (stereo partly shown) [Compound 355]
Ki (Bcl-2): < 800 nM
Bcl-XL binding affinity Ki (Bcl-xL): ♯
IC50 [1]: 2 to 5 µM

CC(O)C1C(CO)ON(Cc2cccc(CN(CCN(C)C)Cc3cccc(Cl)c3)c2)C1C(=O)NC1CC2CC(C1C)C2(C)C (stereo not shown) [Compound 361]
Ki (Bcl-2): < 800 nM
Bcl-XL binding affinity Ki (Bcl-xL): ♯
IC50 [1]: 2 to 5 µM

CC(O)C1C(CO)ON(Cc2cccc(CN(CCN(C)C)Cc3ccc(C(F)(F)F)cc3)c2)C1C(=O)NC1CC2CC(C1C)C2(C)C (stereo not shown) [Compound 371]
Ki (Bcl-2): < 800 nM
Bcl-XL binding affinity Ki (Bcl-xL): ♯
IC50 [1]: 2 to 5 µM

CC(=O)Oc1cccc(CN(CCN(C)C)Cc2cccc(CN3OC(CO)C(C(C)O)C3C(=O)NC3CC4CC(C3C)C4(C)C)c2)c1 (stereo not shown) [Compound 405]
Ki (Bcl-2): < 800 nM
Bcl-XL binding affinity Ki (Bcl-xL): ♯
IC50 [1]: 2 to 5 µM

CCOc1cccc(CN(CCN(C)C)Cc2cccc(CN3OC(CO)C(C(C)O)C3C(=O)NC3CC4CC(C3C)C4(C)C)c2)c1 (stereo not shown) [Compound 383]
Ki (Bcl-2): < 800 nM
Bcl-XL binding affinity Ki (Bcl-xL): ♯
IC50 [1]: 2 to 5 µM

CC(O)C1C(CO)ON(Cc2cccc(CN(CCN(C)C)Cc3ccccc3C#N)c2)C1C(=O)NC1CC2CC(C1C)C2(C)C (stereo not shown) [Compound 369]
Ki (Bcl-2): < 800 nM
Bcl-XL binding affinity Ki (Bcl-xL): ♯
IC50 [1]: 2 to 5 µM

CC(O)C1C(CO)ON(Cc2cccc(CN(Cc3ccccc3)C3CCN(C)C3)c2)C1C(=O)NC1CC2CC(C1C)C2(C)C (stereo not shown) [Compound 429]
Ki (Bcl-2): < 800 nM
Bcl-XL binding affinity Ki (Bcl-xL): ♯
IC50 [1]: 2 to 5 µM

C[C@@H]1[C@@H](NC(=O)[C@@H]2C([C@H](C)O)[C@H](CO)ON2Cc2cccc(CN(CCN(C)C)Cc3cccc(F)c3F)c2)C[C@H]2C[C@@H]1C2(C)C (stereo partly shown) [Compound 362]
Ki (Bcl-2): < 800 nM
Bcl-XL binding affinity Ki (Bcl-xL): ♯
IC50 [1]: 2 to 5 µM

C[C@@H]1[C@@H](NC(=O)[C@@H]2[C@H]([C@H](C)O)[C@H](CO)ON2Cc2cccc(NC(=O)N[C@@H](Cc3ccccc3)CN(C)C)c2)C[C@H]2C[C@@H]1C2(C)C [Compound 570]
Ki (Bcl-2): < 800 nM
Bcl-XL binding affinity Ki (Bcl-xL): ♯
IC50 [1]: > 5 µM

COc1c(CN2O[C@@H](CO)[C@@H]([C@H](C)O)[C@H]2C(=O)N[C@H]2C[C@H]3C[C@@H]([C@@H]2C)C3(C)C)cccc1-c1cccc(C(=O)N[C@@H](CCc2ccccc2)CN(C)C)c1 [Compound 481]
Ki (Bcl-2): < 800 nM
Bcl-XL binding affinity Ki (Bcl-xL): ♯
IC50 [1]: 2 to 5 µM

C[C@@H]1[C@@H](NC(=O)[C@@H]2[C@H]([C@H](C)O)[C@H](CO)ON2Cc2cccc(NC(=O)N[C@@H](CC3CCCCC3)CN(C)C)c2)C[C@H]2C[C@@H]1C2(C)C [Compound 577]
Ki (Bcl-2): < 800 nM
Bcl-XL binding affinity Ki (Bcl-xL): ♯
IC50 [1]: 2 to 5 µM

COc1cccc(OC)c1CN(Cc1cccc(CN2OC(CO)C(C(C)O)C2C(=O)NC2CC3CC(C2C)C3(C)C)c1)C(CC(C)C)CN(C)C (stereo not shown) [Compound 324]
Ki (Bcl-2): < 800 nM
Bcl-XL binding affinity Ki (Bcl-xL): ♯
IC50 [1]: < 2 µM

C[C@@H]1[C@@H](NC(=O)[C@@H]2C([C@H](C)O)[C@H](CO)ON2Cc2cccc(CN3[C@@H](CN(C)C)CC[C@H]3c3ccccc3)c2)C[C@H]2C[C@@H]1C2(C)C (stereo partly shown) [Compound 448]
Ki (Bcl-2): < 800 nM
Bcl-XL binding affinity Ki (Bcl-xL): ♯
IC50 [1]: 2 to 5 µM

CC(O)C1C(CO)ON(Cc2cccc(CN(CCN(C)C)Cc3cccc(F)c3)c2)C1C(=O)NC1CC2CC(C1C)C2(C)C (stereo not shown) [Compound 356]
Ki (Bcl-2): < 800 nM
Bcl-XL binding affinity Ki (Bcl-xL): ♯
IC50 [1]: > 5 µM

CC(O)C1C(CO)ON(Cc2cccc(CN(CCN(C)C)Cc3cccc4ccccc34)c2)C1C(=O)NC1CC2CC(C1C)C2(C)C (stereo not shown) [Compound 368]
Ki (Bcl-2): < 800 nM
Bcl-XL binding affinity Ki (Bcl-xL): ♯
IC50 [1]: 2 to 5 µM
